# Test results from ChEMBL document CHEMBL1201862, “PubChem BioAssay data set” (2004).
#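 Exposure lasted 48 hours, with cells grown in 96-well plates and compounds tested at five concentrations. The concentration for 50% growth inhibition is given as GI50.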 The source made the active and inactive calls. Rule as the data show it: active = GI50 up to about 1.1 µM and inactive = higher.
# Columns and labels:
# Experiment in all cases: NCI tumour cell line growth inhibition, 48 h
# SK-OV-3 = test system: SK-OV-3
# RXF 393 = test system: RXF 393
# A549 = test system: A549
# ACHN = test system: ACHN
# Malme-3M = test system: Malme-3M
# SK-MEL-2 = test system: SK-MEL-2
# KM12 = test system: KM12
# MDA-N = test system: MDA-N
# OVCAR-3 = test system: OVCAR-3
# CCRF-CEM = test system: CCRF-CEM
# SK-MEL-28 = test system: SK-MEL-28
# BT-549 = test system: BT-549
# SF-268 = test system: SF-268
# OVCAR-8 = test system: OVCAR-8
# SF-295 = test system: SF-295
# T47D = test system: T47D
# MDA-MB-231 = test system: MDA-MB-231
# HCC 2998 = test system: HCC 2998
# 786-0 = test system: 786-0
# HCT-15 = test system: HCT-15
# A498 = test system: A498
# SW-620 = test system: SW-620
# NCI/ADR-RES = test system: NCI/ADR-RES
# HCT-116 = test system: HCT-116
# SN12C = test system: SN12C
# IGROV-1 = test system: IGROV-1
# SNB-19 = test system: SNB-19
# OVCAR-5 = test system: OVCAR-5
# U-251 = test system: U-251
# K562 = test system: K562
# M14 = test system: M14
# SNB-75 = test system: SNB-75
# DU-145 = test system: DU-145
# NCI-H23 = test system: NCI-H23
# UO-31 = test system: UO-31
# HOP-92 = test system: HOP-92
# PC-3 = test system: PC-3
# UACC-257 = test system: UACC-257
# Hs-578T = test system: Hs-578T
# OVCAR-4 = test system: OVCAR-4
# SR = test system: SR
# HT-29 = test system: HT-29
# SK-MEL-5 = test system: SK-MEL-5
# MDA-MB-435 = test system: MDA-MB-435
# COLO 205 = test system: COLO 205
# NCI-H226 = test system: NCI-H226
# TK-10 = test system: TK-10
# EKVX = test system: EKVX
# NCI-H522 = test system: NCI-H522
# SF-539 = test system: SF-539
# RPMI-8226 = test system: RPMI-8226
# UACC-62 = test system: UACC-62
# HL-60 = test system: HL-60
# MCF7 = test system: MCF7
# NCI-H460 = test system: NCI-H460
# CAKI-1 = test system: CAKI-1
# MOLT-4 = test system: MOLT-4
compound,measurement,setting,value
COC(=O)CC(=O)Nc1sccc1S(=O)(=O)c1ccccc1,GI50,SK-OV-3,> 100 µM (inactive)
same,GI50,RXF 393,44.4 µM (inactive)
same,GI50,A549,> 100 µM (inactive)
same,GI50,ACHN,> 100 µM (inactive)
same,GI50,Malme-3M,> 100 µM (inactive)
same,GI50,SK-MEL-2,66.2 µM (inactive)
same,GI50,KM12,94.8 µM (inactive)
same,GI50,MDA-N,35.2 µM (inactive)
same,GI50,OVCAR-3,16.4 µM (inactive)
same,GI50,CCRF-CEM,> 100 µM (inactive)
same,GI50,SK-MEL-28,> 100 µM (inactive)
same,GI50,BT-549,27.5 µM (inactive)
same,GI50,SF-268,> 100 µM (inactive)
same,GI50,OVCAR-8,> 100 µM (inactive)
same,GI50,SF-295,> 100 µM (inactive)
same,GI50,T47D,> 100 µM (inactive)
same,GI50,MDA-MB-231,> 100 µM (inactive)
same,GI50,HCC 2998,15.8 µM (inactive)
same,GI50,786-0,50.5 µM (inactive)
same,GI50,HCT-15,27.2 µM
same,GI50,A498,> 100 µM (inactive)
same,GI50,SW-620,> 100 µM (inactive)
same,GI50,NCI/ADR-RES,> 100 µM (inactive)
same,GI50,HCT-116,> 100 µM (inactive)
same,GI50,SN12C,> 100 µM (inactive)
same,GI50,IGROV-1,> 100 µM (inactive)
same,GI50,SNB-19,> 100 µM (inactive)
same,GI50,OVCAR-5,> 100 µM (inactive)
same,GI50,U-251,> 100 µM (inactive)
same,GI50,K562,80.7 µM (inactive)
same,GI50,M14,27 µM (inactive)
same,GI50,SNB-75,> 100 µM (inactive)
same,GI50,DU-145,71.3 µM (inactive)
same,GI50,NCI-H23,> 100 µM (inactive)
same,GI50,UO-31,40.5 µM (inactive)
same,GI50,HOP-92,> 100 µM (inactive)
same,GI50,PC-3,34.4 µM (inactive)
same,GI50,UACC-257,67.1 µM (inactive)
same,GI50,Hs-578T,> 100 µM (inactive)
same,GI50,OVCAR-4,54.3 µM (inactive)
same,GI50,SR,> 100 µM (inactive)
same,GI50,HT-29,> 100 µM (inactive)
same,GI50,SK-MEL-5,> 100 µM (inactive)
same,GI50,MDA-MB-435,> 100 µM (inactive)
same,GI50,COLO 205,> 100 µM (inactive)
same,GI50,NCI-H226,40.3 µM (inactive)
same,GI50,TK-10,65.9 µM (inactive)
same,GI50,EKVX,> 100 µM (inactive)
same,GI50,NCI-H522,46.9 µM (inactive)
same,GI50,SF-539,35.1 µM (inactive)
same,GI50,RPMI-8226,> 100 µM (inactive)
same,GI50,UACC-62,49.1 µM (inactive)
same,GI50,HL-60,> 100 µM (inactive)
same,GI50,MCF7,65.8 µM (inactive)
same,GI50,NCI-H460,> 100 µM (inactive)
same,GI50,CAKI-1,> 100 µM (inactive)
same,GI50,MOLT-4,> 100 µM (inactive)
